Measurements published in paper PMC4501388 (European journal of medicinal chemistry, 2015).
“And” between values parts separate entries of the source, which are not always exact repeats. Identical values can stand only once.

Assays:
TK1 [1] = molecular target: T1, TK1 (Homo sapiens, UniProt P04183); assay: Phosphate transfer assay; type: biochemical; conditions: 100 μM nucleoside analogue and 100 μM ATP
T1 sequence (P04183 1-234): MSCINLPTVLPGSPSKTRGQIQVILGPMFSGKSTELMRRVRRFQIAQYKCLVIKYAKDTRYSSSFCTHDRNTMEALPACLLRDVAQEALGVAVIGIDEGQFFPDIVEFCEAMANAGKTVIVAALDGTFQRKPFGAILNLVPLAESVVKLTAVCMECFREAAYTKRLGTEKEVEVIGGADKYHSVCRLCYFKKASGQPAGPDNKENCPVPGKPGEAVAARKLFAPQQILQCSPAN

[2] = system: rats bearing intracerebral RG2 gliomas; assay: In vivo biodistribution study, boron determination by ICP-OES; set-up: species or system rat
TK1 [3] = molecular target: T1, TK1; assay: Enzyme kinetic studies; type: biochemical; conditions: 1.95–500 μM nucleoside analogue and 100 μM ATP
[4] = system: TK1(+)- and TK1(−) L929 cells; conditions: cited from earlier work
[5] = Stability during storage in aqueous solutions; type: physicochemical
TK1 [6] = molecular target: T1, TK1; assay: Competitive TK1 inhibition studies; conditions: 0.5 μM dThd, 5 mM ATP, 0–250.00 μM nucleoside analogue
RG2 glioma cells = assay: In vitro metabolomic HRMS study; type: cell-based, rat

## 3-({3-[4-(closo-1,7-Carboranyl)butyl]amino}propyl)thymidine [Compound 20]
TK1 [1]
  rPR (phosphorylation rate relative to that of dThd): 19.5 ± 5.3%

## 3-[5-{2-(2,3-dihydroxyprop-1-yl)-o-carboran-1-yl}pentan-1-yl]thymidine [Compound 2]
[2]; 100 μg boron i.c. by ALZET pump over 24 h, RG2 glioma, Fischer rats
  Boron concentration, Tumor: 8.9 µg/g and 8.8 ± 2.9 µg/g
[2]; tumor to blood boron ratio, i.c. over 24 h
  Ratio T/Bl (tumor/blood ratio): 9.3
[2]; tumor to brain boron ratio, i.c. over 24 h
  Ratio T/B: 4.3
TK1 [3]
  Km: 24.3 ± 2.1 µM
  kcat: 5.1 s⁻¹
  rkcat/Km (kcat/Km relative to that of 1): 5.8%
[4]; TK1(+) L929 cells
  Di- and triphosphorylation: did not seem to occur
[4]; TK1(+) vs TK1(−) L929 cells, tritiated compound
  Intracellular monophosphate metabolite formation: production of tritiated 2-MP in TK1(+) L929 cells but not in their TK1(−) L929 counterparts
[5]
  Stability during storage: stable
TK1 [1]
  rPR (phosphorylation rate relative to that of dThd): 40.0% and 40.0 ± 11.2%
TK1 [6]
  IC50: 37.5 ± 6.3 µM
RG2 glioma cells; RG2 cells, HRMS positive and negative ion mode
  Di- and triphosphate metabolites: could not be detected
RG2 glioma cells; TK1(+) RG2 cells, 17.5 μM, 2 hours, HRMS
  5′-Monophosphate metabolite formation: monophosphorylated

## 3-({2-[2-(closo-1,7-Carboranyl)ethyl]amino}ethyl)thymidine [Compound 16]
TK1 [1]
  rPR (phosphorylation rate relative to that of dThd): 35.2 ± 5.3%

## 3-({2-[3-(closo-1,7-Carboranyl)propyl]amino}ethyl)thymidine [Compound 17]
TK1 [1]
  rPR (phosphorylation rate relative to that of dThd): 24.5 ± 7.8%

## 3-({2-[4-(closo-1,7-carboranyl)butyl]amino}-2-oxoethyl)thymidine [Compound 30]
TK1 [1]
  rPR (phosphorylation rate relative to that of dThd): 12.3 ± 8.7%

## 3-({2-[4-(closo-1,7-Carboranyl)butyl]amino}ethyl)thymidine [Compound 18]
TK1 [1]
  rPR (phosphorylation rate relative to that of dThd): 44.4 ± 8.7%

## 3-({4-[3-(closo-1,7-Carboranyl)propyl]amino}butyl)thymidine [Compound 21]
TK1 [3]
  Km: 80.1 ± 37.6 µM
  kcat: 5.9 s⁻¹
  rkcat/Km (kcat/Km relative to that of 1): 2.0%
[5]
  Stability during storage: stable
TK1 [1]
  rPR (phosphorylation rate relative to that of dThd): 45% and 45.2 ± 3.8%
TK1 [6]
  IC50: > 250 µM

## 3-({2-[2-(closo-1,7-Carboranyl)ethyl]amino}-2-oxoethyl)thymidine [Compound 28]
TK1 [1]
  rPR (phosphorylation rate relative to that of dThd): 19.2 ± 4.5%

## 3-({4-[4-(closo-1,7-Carboranyl)butyl]amino}butyl)thymidine [Compound 22]
TK1 [3]
  Km: 39.8 ± 10.4 µM
  kcat: 5.4 s⁻¹
  rkcat/Km (kcat/Km relative to that of 1): 3.7%
[5]
  Stability during storage: stable
TK1 [1]
  rPR (phosphorylation rate relative to that of dThd): 38% and 38.0 ± 6.5%
TK1 [6]
  IC50: > 250 µM

## 3-({2-[3-(closo-1,7-carboranyl)propyl]amino}-2-oxoethyl)thymidine [Compound 29]
TK1 [1]
  rPR (phosphorylation rate relative to that of dThd): 14.5 ± 4.8%

## 3-{[3-(closo-1,7-Carboranyl)propyl]amino}thymidine [Compound 9]
TK1 [1]
  rPR (phosphorylation rate relative to that of dThd): ~ 30%

## 3-({3-[3-(closo-1,7-Carboranyl)propyl]amino}propyl)thymidine [Compound 19]
TK1 [1]
  rPR (phosphorylation rate relative to that of dThd): 18.8 ± 4.8%
